Reference: US20230212122A1, “MITOCHONDRIAL TARGETING COMPOUNDS FOR THE TREATMENT OF ASSOCIATED DISEASES” (The Regents of the University of Michigan, priority 2020, published 2023)

Assays:
MIA PaCa-2 cells = test: MTT assay, cancer cell growth inhibition (MIA PaCa-2); type: cell-based; conditions: Homo sapiens, MIA PaCa-2, 168 h, 7 days of treatment, read-out: MiaPaCa IC50
Description: (§1) Measurement of cancer cell growth inhibition of the compounds of invention Cytotoxicity of the compounds was assessed by MTT assay. In brief, MIA PaCa-2 cells or BxPc3 cells were seeded in 96-well microtitre plates at density of 200 cells/well. After overnight attachment, cells were treated with compounds at indicated concentration. After 7 days of treatment, MTT solution (3 mg/ml, 20 μl) was added to each well and cells were incubated for 3 h at 37° C. After incubation, media from each well was removed and the dark blue formazan crystals formed by live cells were dissolved in DMSO ([…] per well). The absorbance intensity was measured at 570 nm on a microplate reader (Molecular Devices, Sunnyvale, Calif., USA). The half maximal inhibitory concentration (IC50) value were calculated using 4 or 6 dots curve plotted with Cumulative Gaussian equation or Log(inhibitor) vs. response equation in GraphPad Prism.

BxPc3 cells = test: MTT assay, cancer cell growth inhibition (BxPC-3); type: cell-based; conditions: Homo sapiens, BXPC-3, 168 h, 7 days of treatment
Description: as §1

| SMILES | IC50 (MIA PaCa-2 cells) | IC50 (BxPc3 cells) |
| --- | --- | --- |
| CCN(CC)S(=O)(=O)c1ccc(S(=O)(=O)N2CCC[C@@H](C(=O)NC3COC3)C2)cc1 [DX2-242, (R)-1-((4-(N,N-diethylsulfamoyl)phenyl)sulfonyl)-N-(oxetan-3-yl)piperidine-3-carboxamide] | 2340 ± 1010 nM | 13800 ± 3580 nM |
| CCOC(=O)[C@@H]1CCCN(S(=O)(=O)c2ccc(S(=O)(=O)N3CCCCC3)cc2)C1 [DX2-265, ethyl (R)-1-((4-(piperidin-1-ylsulfonyl)phenyl)sulfonyl)piperidine-3-carboxylate] | 2870 ± 490 nM | 3290 ± 740 nM |
| CCOC(=O)c1cccc(S(=O)(=O)c2ccc(S(=O)(=O)N(CC)CC)cc2)c1 [DX3-3, ethyl 3-((4-(N,N-diethylsulfamoyl)phenyl)sulfonyl)benzoate] | 4120 ± 2440 nM | 2290 ± 700 nM |
| CCN(CC)S(=O)(=O)c1ccc(S(=O)(=O)N2CCCC(S(=O)(=O)N(C)C)C2)cc1 (stereo not drawn) [DX3-39, 1-((4-(N,N-diethylsulfamoyl)phenyl)sulfonyl)-N,N-dimethylpiperidine-3-sulfonamide] | 5100 ± 1290 nM | 6300 ± 1440 nM |
| CCN(CC)S(=O)(=O)c1ccc(S(=O)(=O)N2CCCC(F)C2)cc1 (stereo not drawn) [DX3-49B, N,N-diethyl-4-((3-fluoropiperidin-1-yl)sulfonyl)benzenesulfonamide] | 3650 ± 1680 nM | 8270 ± 2520 nM |
| CCN(CC)S(=O)(=O)c1ccc(S(=O)(=O)N2CCC[C@@H](C(=O)N[C@@H]3CCOC3)C2)cc1 [DX3-107B, (R)-1-((4-(N,N-diethylsulfamoyl)phenyl)sulfonyl)-N-((R)-tetrahydrofuran-3-yl)piperidine-3-carboxamide] | 750 ± 80 nM | 2270 ± 610 nM |
| CCOC(=O)C12CC(CN(S(=O)(=O)c3ccc(S(=O)(=O)N(CC)CC)cc3)C1)C2 [DX3-115, ethyl 3-((4-(N,N-diethylsulfamoyl)phenyl)sulfonyl)-3-azabicyclo[3.1.1]heptane-1-carboxylate] | 1040 ± 450 nM | 1230 ± 790 nM |
| CCN(CC)S(=O)(=O)c1ccc(S(=O)(=O)N2CCC[C@@H](C(=O)N[C@H]3CCN(C(=O)OC(C)(C)C)C3)C2)cc1 [DX3-119, tert-butyl (S)-3-((R)-1-((4-(N,N-diethylsulfamoyl)phenyl)sulfonyl)piperidine-3-carboxamido)pyrrolidine-1-carboxylate] | 130 ± 40 nM | 330 ± 120 nM |
| CCN(CC)S(=O)(=O)c1ccc(S(=O)(=O)N2CCC[C@@H](C(=O)N3CC4(CN(C(=O)OC(C)(C)C)C4)C3)C2)cc1 [DX3-120, tert-butyl (R)-6-(1-((4-(N,N-diethylsulfamoyl)phenyl)sulfonyl)piperidine-3-carbonyl)-2,6-diazaspiro[3.3]heptane-2-carboxylate] | 430 ± 180 nM | 1100 ± 160 nM |
| CCN(CC)S(=O)(=O)c1ccc(S(=O)(=O)N2CCC[C@@H](C(=O)N3CCOCC3)C2)cc1 [DX3-121B, (R)-N,N-diethyl-4-((3-(morpholine-4-carbonyl)piperidin-1-yl)sulfonyl)benzenesulfonamide] | 350 ± 20 nM | – |
| CCN(CC)S(=O)(=O)c1ccc(S(=O)(=O)N2CCC[C@@H](c3nc(C)no3)C2)cc1 [DX3-122B, (R)-N,N-diethyl-4-((3-(3-methyl-1,2,4-oxadiazol-5-yl)piperidin-1-yl)sulfonyl)benzenesulfonamide] | 4120 ± 1160 nM | 2860 ± 3140 nM |
| CCN(CC)S(=O)(=O)c1ccc(S(=O)(=O)N2CCC[C@@H](C(=O)N[C@@H]3CCN(C(=O)c4ccccc4)C3)C2)cc1 [DX3-125, (R)-N-((R)-1-benzoylpyrrolidin-3-yl)-1-((4-(N,N-diethylsulfamoyl)phenyl)sulfonyl)piperidine-3-carboxamide] | 940 nM | 3720 nM |

Other lines, results leading:

| IC50 (MIA PaCa-2 cells) | IC50 (BxPc3 cells) | SMILES |
| --- | --- | --- |
| 1350 ± 590 nM | 3290 ± 60 nM | CCOC(=O)[C@@H]1C[C@H](O)CN(S(=O)(=O)c2ccc(S(=O)(=O)N(CC)CC)cc2)C1 (relative stereo) [DX3-14B-P1, (cis)-ethyl 1-((4-(N,N-diethylsulfamoyl)phenyl)sulfonyl)-5-hydroxypiperidine-3-carboxylate] |
| 6080 ± 760 nM | 6800 ± 2100 nM | CCOC(=O)[C@H]1CCCN(S(=O)(=O)c2ccc(S(=O)(=O)N(CC)CC)cc2)C1 [DX2-202, ethyl (S)-1-((4-(N,N-diethylsulfamoyl)phenyl)sulfonyl)piperidine-3-carboxylate] |
| 12100 ± 3850 nM | 13400 ± 4580 nM | CCOC(=O)[C@@H]1CCCN(S(=N)(=O)c2ccc(S(=O)(=O)N(CC)CC)cc2)C1 (stereo partly drawn) [DX2-225, ethyl (3R)-1-(4-(N,N-diethylsulfamoyl)phenylsulfonimidoyl)piperidine-3-carboxylate] |
| 3920 ± 890 nM | 3880 ± 570 nM | CCOC(=O)[C@@H]1CCCN(S(=O)(=O)c2ccc(Oc3ccc(S(=O)(=O)N(CC)CC)cc3)cc2)C1 [DX2-230, ethyl (R)-1-((4-(4-(N,N-diethylsulfamoyl)phenoxy)phenyl)sulfonyl)piperidine-3-carboxylate] |
| 300 ± 130 nM | 350 ± 60 nM | CCN(CC)S(=O)(=O)c1ccc(S(=O)(=O)N2CCC[C@@H](C(=O)OC3CC3)C2)cc1 [DX2-263, cyclopropyl (R)-1-((4-(N,N-diethylsulfamoyl)phenyl)sulfonyl)piperidine-3-carboxylate] |
| 930 ± 360 nM | 1610 ± 370 nM | CCOC(=O)[C@@H]1CCCN(S(=O)(=O)c2ccc(S(=O)(=O)N(CC)CC)c(F)c2)C1 [DX2-275, ethyl (R)-1-((4-(N,N-diethylsulfamoyl)-3-fluorophenyl)sulfonyl)piperidine-3-carboxylate] |
| 1300 ± 450 nM | 1370 ± 520 nM | CCOC(=O)[C@@H]1CCCN(S(=O)(=O)c2ccc(S(=O)(=O)N(CC)CC)cn2)C1 [DX2-293, ethyl (R)-1-((5-(N,N-diethylsulfamoyl)pyridin-2-yl)sulfonyl)piperidine-3-carboxylate] |
| 4700 ± 1920 nM | 6770 ± 520 nM | CCOC(=O)C1CN(S(=O)(=O)c2ccc(S(=O)(=O)N(CC)CC)cc2)CCN1 (stereo not drawn) [DX3-44B, ethyl 4-((4-(N,N-diethylsulfamoyl)phenyl)sulfonyl)piperazine-2-carboxylate] |
| 2940 ± 320 nM | 4920 ± 1940 nM | CCOC(=O)C1(F)CCCN(S(=O)(=O)c2ccc(S(=O)(=O)N(CC)CC)cc2)C1 (stereo not drawn) [DX3-47, ethyl 1-((4-(N,N-diethylsulfamoyl)phenyl)sulfonyl)-3-fluoropiperidine-3-carboxylate] |
| 280 nM | 620 nM | CCOC(=O)[C@@H]1CCCN(S(=O)(=O)c2ccc(C(=O)N(CC)CC)cc2)C1 [DX3-78B, ethyl (R)-1-((4-(diethylcarbamoyl)phenyl)sulfonyl)piperidine-3-carboxylate] |
| 2550 ± 150 nM | 3590 ± 1390 nM | CCOC(=O)[C@@H]1CCCN(S(=O)(=O)c2ccc(S(=N)(=O)N(CC)CC)cc2)C1 (stereo partly drawn) [DX3-90, ethyl (3R)-1-((4-(N,N-diethylsulfamidimidoyl)phenyl)sulfonyl)piperidine-3-carboxylate] |
